Laboratory results as given in publication PMC12285759 (RSC Advances, 2025).

System: Vero Cells
Experiment: MTT assay, cytotoxicity of the test compounds
Assay type: cell-based
Settings: not tested for inhibitory effect

Compound: O=c1ccn([C@@H]2O[C@H](COCc3ccccc3)[C@H](OCc3ccccc3)[C@H](OCc3ccccc3)[C@H]2I)c(=O)[nH]1 [3h]
- cytotoxicity (in words): cytotoxic
